Results: PMC9230590, “Pharmacokinetics and Tissue Distribution of Enavogliflozin in Mice and Rats” (Pharmaceutics, 2022)
Values joined by “and” are separate entries in the source; they are usually repeats but may differ in a detail not shown here. Identical values can stand only once. Like-named read-outs stand apart in the source and are kept apart here.

How the values were obtained:
[1] = Pharmacokinetics after intravenous injection in mice; format: in vivo, ICR mice; details: for AUC(0-inf) / AUC(0-t) / half-life / MRT / clearance / Vd: ICR, mouse; for AUC(0-inf) / AUC(0-t) / half-life / MRT / clearance / Vd / Co: plasma; for AUC∞/D / Co/D: dose normalized
Method: Fifty-four ICR mice were randomly divided into nine groups (n = 6 per group; Table 1) and intravenously administered an enavogliflozin solution at doses of 0.3, 1, and 3 mg/kg. The drug was dissolved in a mixture of 10% DMSO and 90% saline and injected via the tail vein. Before blood sampling, mice were anesthetized for 5 min using 2% isoflurane in a vaporizer with an oxygen flow of 0.8 L/min. Blood sampling used a sparse sampling method via the right or left retro-orbital vein using heparinized capillary tubes (Heinz Herenz, Hamburg, Germany). Final blood was collected from the abdominal artery using a heparin-treated 1 mL syringe (Jung Lim Co. Ltd., Choong-Buk, Korea) under isoflurane anesthesia (Table 1). Blood samples were collected at 0, 0.083, 0.25, 0.5, 1, 2, 4, 8, and 24 h and centrifuged at 12,000× g for 1 min to separate plasma. An aliquot (30 µL) of each plasma sample was stored at −80 °C until enavogliflozin analysis.
(§1) Concentrations of enavogliflozin in plasma and tissue homogenate samples were analyzed using an Agilent 6430 triple quadrupole liquid chromatography-mass spectrometry (LC–MS/MS) system (Agilent, Wilmington, DE, USA) following a previously published method.
(§2) The data were expressed as the means ± standard deviation for the groups. Pharmacokinetic parameters, such as the area under the plasma concentration–time curve during the period of observation (AUClast), AUC to infinite time (AUC∞), clearance (CL), and volume of distribution at steady-state (Vd,ss), the terminal half-life (t1/2), and mean residence time (MRT) were calculated using non-compartment analysis with WinNonlin software (version 5.1; Pharsights, Cary, NC, USA). The AUC ratios were calculated by dividing the AUClast of enavogliflozin in the tissue samples by the plasma AUClast values of enavogliflozin [15].

[2] = Recovery from urine and feces over 72 h in mice; format: in vivo, ICR mice; details: for Recovery, Feces / Recovery, Urine: parent form
Method: Three mice received enavogliflozin (1 mg/kg) intravenously and were returned to metabolic cages with food and water ad libitum and urine and feces samples were collected every 24 h for 72 h. Urine and feces were weighed, and 30 µL aliquots of urine and 50 µL aliquots of 10% feces homogenates were stored at −80 °C until enavogliflozin analysis. Four mice received enavogliflozin (1 mg/kg) by oral gavage and were returned to their metabolic cages to collect urine and feces samples every 24 h for 72 h with the same protocols described above.
as §1
Aliquots of plasma or urine (30 µL each) and tissue homogenate (50 µL each) were added to 100 µL of aqueous solution of d4-enavogliflozin (IS, 20 ng/mL), and vigorously mixed with 500 µL MTBE for 15 min. After centrifugation at 16,000× g for 5 min, samples were kept for 1 h, at a temperature of −80 °C to freeze the aqueous layer freeze. The organic upper layer was then transferred to a clean tube and evaporated to dryness under a gentle stream of nitrogen. The dried extract was reconstituted in 150 µL of mobile phase, and a 3 µL aliquot was injected into the LC–MS/MS system. Enavogliflozin was separated on a Synergi Polar RP column (2.0 × 150 mm, 4 µm particle size; Phenomenex, Torrence, CA, USA) using a isocratic mobile phase consisting of water (15%) and methanol (85%) containing 0.1% formic acid at a flow rate of 0.25 mL/min.

[3] = Tissue distribution after single or repeated oral administration (7 or 14 days) in mice; format: in vivo, ICR mice; details: for Kp / AUC(0-t): ICR, mouse, po, 1 mg/kg; for Kp: read-out: AUC Ratio (AUC48 h, tissue / AUC48 h, plasma); for AUC(0-t): plasma, read-out: AUC48 h; for AUC48 h: oral 1 mg/kg
Method: Thirty-five ICR mice were randomly divided into five groups (n = 7 per sampling time point) and administered with an enavogliflozin solution (1 mg/kg, once daily) for 14 days via oral gavage. Another thirty-five ICR mice were randomly divided into five groups (n = 7 per sampling time point) and administered with an enavogliflozin solution (1 mg/kg, once daily) for 7 days via oral gavage. The other thirty-five ICR mice were randomly divided into five groups (n = 7 per sampling time point) and administered with an enavogliflozin solution at a dose of 1 mg/kg via oral gavage. Blood samples (approximately 0.2 mL) were collected at 1, 2, 8, 24, and 48 h via the abdominal artery. Subsequently, whole tissues, including kidney, liver, small intestine, and large intestine, were isolated. An aliquot (30 µL) of plasma and aliquots (50 µL) of tissue homogenate samples were prepared and stored with the same procedures described above.
as §1, §2

[4] = tested on: SGLT1; set-up: method as in PMID 32183468; details: cited from earlier work
[5] = tested on: hepatocytes; set-up: method as in PMID 32932946; details: mouse hepatocytes; cited from earlier work

OC[C@H]1O[C@@H](c2cc(Cc3ccc(C4CC4)cc3)c(Cl)c3c2CCO3)[C@H](O)[C@@H](O)[C@@H]1O [enavogliflozin, (2S,3R,4R,5S,6R)-2-(7-chloro-6-(4-cyclopropylbenzyl) -2,3-dihydrobenzofuran-4-yl)-6-(hydroxymethyl)tetrahydro-2H-pyran-3,4,5-triol]
AUC(0-inf) ([1]; IV 0.3 mg/kg): 512 ± 30.7 ng·h/mL
AUC(0-t) ([1]; IV 0.3 mg/kg): 479 ± 33.6 ng·h/mL
half-life ([1]; IV 0.3 mg/kg): 6 ± 1.3 h
AUC(0-inf) ([1]; IV 1 mg/kg): 1630 ± 336 ng·h/mL
AUC(0-t) ([1]; IV 1 mg/kg): 1510 ± 282 ng·h/mL
half-life ([1]; IV 1 mg/kg): 6.5 ± 1.4 h
AUC(0-inf) ([1]; IV 3 mg/kg): 5080 ± 1060 ng·h/mL
AUC(0-t) ([1]; IV 3 mg/kg): 4660 ± 998 ng·h/mL
half-life ([1]; IV 3 mg/kg): 6.6 ± 0.5 h
MRT ([1]; IV 0.3 mg/kg): 5.2 ± 0.4 h
clearance ([1]; IV 0.3 mg/kg, read-out: CL): 9.8 ± 0.6 mL/min/kg
Vd ([1]; IV 0.3 mg/kg, read-out: Vd,ss): 3.1 ± 0.3 L/kg
MRT ([1]; IV 1 mg/kg): 4.9 ± 0.5 h
clearance ([1]; IV 1 mg/kg, read-out: CL): 10.7 ± 2.5 mL/min/kg
Vd ([1]; IV 1 mg/kg, read-out: Vd,ss): 3.1 ± 0.6 L/kg
MRT ([1]; IV 3 mg/kg): 5.2 ± 0.8 h
clearance ([1]; IV 3 mg/kg, read-out: CL): 10.2 ± 2.1 mL/min/kg
Vd ([1]; IV 3 mg/kg, read-out: Vd,ss): 3.2 ± 0.5 L/kg
clearance ([1]; IV 0.3–3 mg/kg, all doses together, read-out: Systemic clearance): 10.1 ± 1.59 mL/min/kg
Vd ([1]; IV, range over doses 0.3–3 mg/kg, read-out: steady-state volume of distribution (Vd,ss)): 3.1 to 3.2 L/kg
AUC∞/D ([1]; IV 0.3 mg/kg): 1706.8 ± 102.3
Co/D ([1]; IV 0.3 mg/kg): 416.8 ± 31.3
Co ([1]; IV 0.3 mg/kg): 125.0 ± 9.4 ng/mL
AUC∞/D ([1]; IV 1 mg/kg): 1626.7 ± 335.6
Co/D ([1]; IV 1 mg/kg): 408.6 ± 103.2
Co ([1]; IV 1 mg/kg): 408.6 ± 103.2 ng/mL
AUC∞/D ([1]; IV 3 mg/kg): 1694.3 ± 354.5
Co/D ([1]; IV 3 mg/kg): 424.7 ± 62.2
Co ([1]; IV 3 mg/kg): 1274.1 ± 186.6 ng/mL
Recovery in feces relative to urine ([2]; 1 mg/kg IV): about 6 fold
Recovery, Feces ([2]; 1 mg/kg IV, 0–24 h, 1 mg/kg): 36.3 % of Dose and 36.3 ± 3.6 % of Dose
Recovery, Urine ([2]; 1 mg/kg IV, 0–24 h, 1 mg/kg): 6.3 % of Dose and 6.3 ± 0.8 % of Dose
Recovery, Feces ([2]; 1 mg/kg IV, 0–72 h, 1 mg/kg): 39.3 ± 3.5 % of Dose and 39.3 % of Dose
Recovery, Urine ([2]; 1 mg/kg IV, 0–72 h, 1 mg/kg): 6.6 ± 0.7 % of Dose and 6.6 % of Dose
Recovery, Feces ([2]; 1 mg/kg IV, 24–48 h): 2.7 ± 1.3 % of Dose
Recovery, Urine ([2]; 1 mg/kg IV, 24–48 h): 0.1 ± 0.0 % of Dose
Recovery, Feces ([2]; 1 mg/kg IV, 48–72 h): 0.4 ± 0.1 % of Dose
Recovery, Feces ([2]; 1 mg/kg PO, 0–24 h): 50.6 ± 11.1 % of Dose
Recovery, Urine ([2]; 1 mg/kg PO, 0–24 h): 6.6 ± 0.6 % of Dose
Recovery, Urine ([2]; 1 mg/kg PO, 0–72 h): 6.8 ± 0.6 % of Dose
Recovery, Feces ([2]; 1 mg/kg PO, 0–72 h, 1 mg/kg): 51.4 % of Dose and 51.4 ± 11.5 % of Dose
Recovery, Feces ([2]; 1 mg/kg PO, 24–48 h): 0.72 ± 0.4 % of Dose
Recovery, Urine ([2]; 1 mg/kg PO, 24–48 h): 0.1 ± 0.0 % of Dose
Recovery, Feces ([2]; 1 mg/kg PO, 48–72 h): 0.2 ± 0.1 % of Dose
dose excreted ([2]; ICR, mouse, urine and feces, 1 mg/kg IV, 72 h, read-out: total recovery (feces + urine)): ~46%
Kp ([3]; kidney, repeated dose for 7 days, kidney): 37.6 ± 5.9
Kp ([3]; kidney, repeated dose for 14 days, kidney): 38.4 ± 18
Kp ([3]; kidney, single dose, kidney): 38.7 ± 6.3
Kp ([3]; large intestine, repeated dose for 7 days, large intestine): 2.33 ± 0.34
Kp ([3]; large intestine, repeated dose for 14 days, large intestine): 2.2 ± 0.71
Kp ([3]; large intestine, single dose, large intestine): 3.24 ± 1.1
Kp ([3]; liver, repeated dose for 7 days, liver): 3.77 ± 0.73
Kp ([3]; liver, repeated dose for 14 days, liver): 4.37 ± 2.6
Kp ([3]; liver, single dose, liver): 4.85 ± 0.64
AUC(0-t) ([3]; repeated dose for 7 days): 2090 ± 290 ng·h/mL
AUC(0-t) ([3]; repeated dose for 14 days): 2360 ± 690 ng·h/mL
AUC(0-t) ([3]; single dose): 2130 ± 270 ng·h/mL
Kp ([3]; small intestine, repeated dose for 7 days, small intestine): 4.5 ± 0.89
Kp ([3]; small intestine, repeated dose for 14 days, small intestine): 3.4 ± 1.5
Kp ([3]; small intestine, single dose, small intestine): 3.47 ± 0.49
AUC48 h ([3]; repeated dose for 7 days, kidney): 77.2 ± 6.3 µg·h/g
AUC48 h ([3]; repeated dose for 7 days, large intestine): 4.88 ± 1.1 µg·h/g
AUC48 h ([3]; repeated dose for 7 days, liver): 7.89 ± 2.1 µg·h/g
AUC48 h ([3]; repeated dose for 7 days, small intestine): 9.39 ± 2.1 µg·h/g
AUC48 h ([3]; repeated dose for 14 days, kidney): 81.6 ± 4.8 µg·h/g
AUC48 h ([3]; repeated dose for 14 days, large intestine): 4.90 ± 1.5 µg·h/g
AUC48 h ([3]; repeated dose for 14 days, liver): 8.85 ± 1.8 µg·h/g
AUC48 h ([3]; repeated dose for 14 days, small intestine): 7.46 ± 2.3 µg·h/g
AUC48 h ([3]; single dose, kidney): 80.9 ± 5.1 µg·h/g
AUC48 h ([3]; single dose, large intestine): 5.68 ± 1.6 µg·h/g
AUC48 h ([3]; single dose, liver): 10.2 ± 1.0 µg·h/g
AUC48 h ([3]; single dose, small intestine): 7.30 ± 0.77 µg·h/g
IC50 [4]: 549 ± 140 nM
In vitro hepatic clearance [5]: 36.5 mL/min/kg
